# Legend:
# [1] = target: PDL1/PD1 (Homo sapiens, UniProt Q9NZQ7); experiment: PDL1/PD1 Binding Assay; settings: PDL1-6×His 0.3 nM, PD1-Fc-Avi-Biotin 2.5 nM, Acceptor/Donor beads; read-out: PD-1/PD-L1 PPI IC50
# Procedure: Compounds to be tested were serially diluted in DMSO, and further diluted in assay buffer (25 mM Hepes pH 7.4, 150 mM NaCl, 0.005% Tween 20, BSA 0.01%). Diluted compounds were added to the wells with final concentration of DMSO at 1%. PDL1-6×His protein was added to the wells, mixed well with compound. The plates were incubated for 30 min at room temperature. PD1-Fc-Avi-Biotin protein was added to the wells. Final concentration of PDL1 and PD1 protein is 0.3 nM and 2.5 nM, respectively. After a binding time of 30 min at room temperature, Anti-6×His Acceptor beads (final concentration 20 ug/ml) were added to the wells, and the incubation continued for 1 h. Streptavidin Donor beads (final concentration 20 ug/mL) were added at reduced light. The plates were sealed with foil and incubated in the dark for additional 1 h or overnight before reading on an Envision reader. The IC50 values were determined by fitting the curves using a four-parameter equation in Graphpad Prism 8.
# [2] = target: T1, PD-1/PD-L1 interaction (Homo sapiens, UniProt Q9NZQ7); experiment: PD-1/PD-L1 NFAT Reporter Assay; type: cell-based; settings: co-culture of PD-L1 expressing CHO cells and PD-1 overexpressing Jurkat cells, 6 hrs, NFAT luciferase
# T1 construct: expressed in transfected cells; Jurkat cells (PD-1 plus NFAT-luciferase)
# T1 sequence (Q9NZQ7 19-290): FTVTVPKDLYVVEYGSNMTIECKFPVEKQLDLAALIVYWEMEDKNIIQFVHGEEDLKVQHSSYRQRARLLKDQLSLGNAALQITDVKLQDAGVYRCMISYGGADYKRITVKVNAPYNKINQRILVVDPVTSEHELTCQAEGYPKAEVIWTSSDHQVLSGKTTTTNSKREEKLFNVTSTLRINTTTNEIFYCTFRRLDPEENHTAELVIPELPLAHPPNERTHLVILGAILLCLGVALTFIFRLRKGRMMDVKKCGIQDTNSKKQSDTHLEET
# Procedure: Blocking the PD-1/PD-L1 interaction will release the inhibitory signal and results in TCR signaling and NFAT-mediated luciferase activity.
# CHO cells expressing surface-bound anti-CD3 antibodies and PD-L1 were first seeded overnight and treated with the compounds. Jurkat cells overexpressing PD-1 and a luciferase construct under NFAT promoter were then immediately seeded on the monolayer of CHO cells. The co-culture was then incubated for 6 hrs at 37° C. Luciferase activity was assessed by adding the ONE-Glo reagent and measuring luminescence with a plate reader. EC50 values were determined from the fit of the dose-response curves.
# PDL1/PD1, sequence (Q9NZQ7 19-238 limits assumed): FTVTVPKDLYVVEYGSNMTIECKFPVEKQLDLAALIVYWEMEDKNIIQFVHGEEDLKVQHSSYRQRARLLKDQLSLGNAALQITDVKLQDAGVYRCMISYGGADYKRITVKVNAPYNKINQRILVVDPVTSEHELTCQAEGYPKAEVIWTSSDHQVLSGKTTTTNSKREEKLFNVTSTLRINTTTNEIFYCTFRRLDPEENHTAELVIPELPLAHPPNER
Structure (SMILES),IC50 [1] [nM],EC50 [2] [nM]
COc1nc(-c2cccc(-c3cccc(NC(=O)c4ccnn(C)c4=O)c3Cl)c2Cl)ccc1CN1CC[C@@H](C(=O)O)C1 [Compound C-16],≤ 10,10 to 100
COc1nc(-c2cccc(-c3cccc(NC(=O)c4ccnn(C)c4=O)c3C)c2Cl)ccc1CN1CC[C@@H](C(=O)O)C1 [Compound C-58],≤ 10,10 to 100
COc1nc(-c2cccc(-c3cccc(NC(=O)c4ccnn(C)c4=O)c3Cl)c2Cl)ccc1CNCCCC(=O)O [Compound C-25],≤ 10,10 to 100
COc1nc(-c2cccc(-c3cccc(NC(=O)c4ccnn(C)c4=O)c3Cl)c2Cl)ccc1CN1C(=O)O[C@H]2COCC[C@H]21 [Compound E-1],≤ 10,> 10000
CCOC(=O)[C@@H]1CCN(Cc2ccc(-c3cccc(-c4cccc(NC(=O)c5ccnn(C)c5=O)c4C)c3Cl)nc2OC)C1 [Compound C-57],≤ 10,10 to 100
COC(=O)C1(F)CN(Cc2ccc(-c3cccc(-c4cccc(NC(=O)c5ccnn(C)c5=O)c4C)c3Cl)nc2OC)C1 [Compound C-61],≤ 10,10 to 100
COc1nc(-c2cccc(-c3cccc(NC(=O)c4ccnn(C)c4=O)c3C)c2Cl)ccc1CN1CC2(C1)CN(C(C)=O)C2 [Compound C-64],≤ 10,10 to 100
COc1nc(-c2cccc(-c3cccc(NC(=O)c4ccnn(C)c4=O)c3C)c2Cl)ccc1CN1CC(O)C1 [Compound C-66],≤ 10,10 to 100
CCOC(=O)C1CN(Cc2cc(F)c(-c3cccc(-c4cccc(NC(=O)c5ccnn(C)c5=O)c4Cl)c3Cl)nc2OC)C1 [Compound C-77],≤ 10,10 to 100
COc1nc(-c2cccc(-c3cccc(NC(=O)c4cc(Cl)n[nH]c4=O)c3Cl)c2Cl)cnc1CN1CC2(CCC(=O)N2)C1 [Compound A-3],≤ 10,100 to 1000
COc1nc(-c2cccc(-c3cccc(NC(=O)c4ccnn(C)c4=O)c3C)c2C)ccc1CN[C@@H]1CCOC[C@H]1O [Compound C-70],≤ 10,10 to 100
CCOC(=O)[C@@H]1CCN(Cc2ccc(-c3cccc(-c4cccc(NC(=O)c5ccnn(C)c5=O)c4Cl)c3Cl)nc2OC)C1 [Compound C-14],10 to 100,10 to 100
COc1nc(-c2cccc(-c3cccc(NC(=O)c4ccnn(C)c4=O)c3Cl)c2Cl)cnc1CN1CC2(CCC(=O)N2)C1 [Compound A-1],≤ 10,10 to 100
COc1nc(-c2cccc(-c3cccc(NC(=O)c4ccnn(C)c4=O)c3Cl)c2Cl)ccc1CNC[C@H](C)O [Compound C-3],≤ 10,10 to 100
COc1nc(-c2cccc(-c3cccc(NC(=O)c4ccnn(C)c4=O)c3C)c2Cl)cc(C)c1CNC[C@@H]1CCC(=O)N1 [Compound B-7],≤ 10,≤ 10
COc1nc(-c2cccc(-c3cccc(NC(=O)c4ccnn(C)c4=O)c3Cl)c2Cl)ccc1CN[C@@H](CO)C(=O)O [Compound C-47],≤ 10,10 to 100
COc1nc(-c2cccc(-c3cccc(NC(=O)c4ccnn(C)c4=O)c3Cl)c2Cl)ccc1CN1CC(OC)C1 [Compound C-8],≤ 10,10 to 100
COc1nc(-c2cccc(-c3cccc(NC(=O)c4ccnn(C)c4=O)c3C)c2Cl)ccc1CN1CC(NC(C)=O)C1 [Compound C-63],≤ 10,10 to 100
COc1nc(-c2cccc(-c3cccc(NC(=O)c4ccnn(C)c4=O)c3C)c2F)cc(C)c1CNC[C@@H]1CCC(=O)N1 [Compound B-4],≤ 10,10 to 100
CCOC(=O)C1(C)CN(Cc2ccc(-c3cccc(-c4cccc(NC(=O)c5ccnn(C)c5=O)c4Cl)c3Cl)nc2OC)C1 [Compound C-21],10 to 100,100 to 1000
COc1nc(-c2cccc(-c3cccc(NC(=O)c4ccnn(C)c4=O)c3Cl)c2Cl)cc(C)c1CNC[C@@H]1CCC(=O)N1 [Compound B-3],≤ 10,≤ 10
COc1nc(-c2cccc(-c3cccc(NC(=O)c4ccnn(C)c4=O)c3Cl)c2Cl)ccc1CN1CC[C@H](C(=O)O)C1 [Compound C-17],≤ 10,10 to 100

# Further lines, results first:
IC50 [1] [nM],EC50 [2] [nM],Structure (SMILES)
≤ 10,100 to 1000,COc1nc(-c2cccc(-c3cccc(NC(=O)c4ccnn(C)c4=O)c3Cl)c2Cl)ccc1CN1C[C@@H](C(=O)O)C(C)(C)C1 [Compound C-48]
≤ 10,100 to 1000,COc1nc(-c2cccc(-c3cccc(NC(=O)c4ccnn(C)c4=O)c3Cl)c2Cl)ccc1CN1CCN(C(=O)OC(C)(C)C)[C@@H](C(=O)O)C1 [Compound C-24]
≤ 10,10 to 100,COc1nc(-c2cccc(-c3cccc(NC(=O)c4ccnn(C)c4=O)c3Cl)c2Cl)ccc1CN1CC(F)(C(=O)O)C1 [Compound C-19]
≤ 10,≤ 10,COc1nc(-c2cccc(-c3cccc(NC(=O)c4ccnn(C)c4=O)c3C)c2Cl)ccc1CN1CC[C@@H](O)C1 [Compound C-67]
≤ 10,10 to 100,CCOC(=O)C1CN(Cc2c(C)cc(-c3cccc(-c4cccc(NC(=O)c5ccnn(C)c5=O)c4C)c3Cl)nc2OC)C1 [Compound C-90]
≤ 10,10 to 100,CCOC(=O)C1CN(Cc2cnc(-c3cccc(-c4cccc(NC(=O)c5ccnn(C)c5=O)c4Cl)c3Cl)nc2OC)C1 [Compound C-79]
≤ 10,10 to 100,COc1nc(-c2cccc(-c3cccc(NC(=O)c4ccnn(C)c4=O)c3Cl)c2Cl)ccc1CNC1CCC[C@@H]1C(=O)O (stereo partly shown) [Compound C-39]
≤ 10,≤ 10,COc1nc(-c2cccc(-c3cccc(NC(=O)c4ccnn(C)c4=O)c3Cl)c2Cl)ncc1CN[C@@H]1CCOC[C@@H]1O [Compound C-81]
≤ 10,10 to 100,COc1nc(-c2cccc(-c3cccc(NC(=O)c4ccnn(C)c4=O)c3Cl)c2Cl)ccc1CN[C@@H]1CN(C(C)=O)C[C@H]1O [Compound C-49]
≤ 10,10 to 100,COc1nc(-c2cccc(-c3cccc(NC(=O)c4ccnn(C)c4=O)c3Cl)c2Cl)ccc1CN1CCC[C@@H]1CC(=O)O [Compound C-33]
≤ 10,≤ 10,COc1nc(-c2cccc(-c3cccc(NC(=O)c4ccnn(C)c4=O)c3Cl)c2Cl)ccc1CN1CC(C(=O)O)C1 [Compound C-9]
≤ 10,10 to 100,COc1cc(C(=O)Nc2cccc(-c3cccc(-c4ccc(CN[C@@H]5CCOC[C@@H]5O)c(OC)n4)c3Cl)c2Cl)c(=O)n(C)n1 [Compound C-92]
≤ 10,10 to 100,COc1nc(-c2cccc(-c3cccc(NC(=O)c4ccnn(C)c4=O)c3C)c2Cl)ccc1CN1CC(C)(C(=O)O)C1 [Compound C-60]
≤ 10,≤ 10,COc1nc(-c2cccc(-c3cccc(NC(=O)c4ccnn(C)c4=O)c3Cl)c2Cl)ccc1CN1CC[C@H](O)C1 [Compound C-50]
≤ 10,10 to 100,COc1nc(-c2cccc(-c3cccc(NC(=O)c4ccn[nH]c4=O)c3Cl)c2Cl)cnc1CN1CC2(CCC(=O)N2)C1 [Compound A-2]
≤ 10,100 to 1000,COC(=O)C12CCC(CC1)N(Cc1ccc(-c3cccc(-c4cccc(NC(=O)c5ccnn(C)c5=O)c4Cl)c3Cl)nc1OC)C2 [Compound C-22]
≤ 10,10 to 100,COc1nc(-c2cccc(-c3cccc(NC(=O)c4ccnn(C)c4=O)c3Cl)c2Cl)ncc1CN1CC(C(=O)O)C1 [Compound C-80]
≤ 10,10 to 100,COc1nc(-c2cccc(-c3cccc(NC(=O)c4ccnn(C)c4=O)c3Cl)c2Cl)ccc1CN1CC(C)(C(=O)O)C1 [Compound C-20]
10 to 100,10 to 100,CCOC(=O)[C@H]1CCN(Cc2ccc(-c3cccc(-c4cccc(NC(=O)c5ccnn(C)c5=O)c4Cl)c3Cl)nc2OC)C1 [Compound C-15]
≤ 10,10 to 100,COc1nc(-c2cccc(-c3cccc(NC(=O)c4ccnn(C)c4=O)c3Cl)c2Cl)ccc1CN1CCC[C@H]1CC(=O)O [Compound C-34]
≤ 10,≤ 10,COc1nc(-c2cccc(-c3cccc(NC(=O)c4ccnn(C)c4=O)c3Cl)c2Cl)ccc1CNC[C@@H](C)O [Compound C-4]
≤ 10,10 to 100,COc1nc(-c2cccc(-c3cccc(NC(=O)c4ccnn(C)c4=O)c3Cl)c2Cl)ccc1CNC[C@@H](C)C(=O)O [Compound C-37]
≤ 10,10 to 100,CCOC(=O)C1CN(Cc2ccc(-c3cccc(-c4cccc(NC(=O)c5ccnn(C)c5=O)c4Cl)c3Cl)nc2OC)C1 [Compound C-13]
≤ 10,10 to 100,CCOC(=O)C1CN(Cc2c(C)cc(-c3cccc(-c4cccc(NC(=O)c5ccnn(C)c5=O)c4Cl)c3Cl)nc2OC)C1 [Compound C-89]
≤ 10,10 to 100,COc1nc(-c2cccc(-c3cccc(NC(=O)c4ccnn(C)c4=O)c3Cl)c2Cl)ccc1CN1CC(CC(=O)O)C1 [Compound C-42]

# From patent US12428427B2, “Methods and compositions for targeting PD-L1” (Aligos Therapeutics, Inc., priority 2021, dated 2025)
